The record followed here is patent US9193722B2, “Tri-cyclic pyrazolopyridine kinase inhibitors” (Vertex Pharmaceuticals Incorporated, priority 2008, dated 2015).

Holding throughout (type): biochemical
In one test the target is PKC theta kinase (Homo sapiens, UniProt Q04759). Kind of test: PKC theta kinase inhibition, coupled-enzyme (NADH absorbance) assay, Ki. The conditions noted are these: 240 μM ATP, 18 nM PKC theta kinase, 30° C. In outline:
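Enzyme and compound equilibrated 10 min at 30 °C before reaction in HEPES pH 7.5 buffer with MgCl2, NaCl, EDTA and Brij. Activity tracked as NADH loss at 340 nm through a coupled system. Initial-rate data fitted by non-linear regression to give Ki.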

The target in a further test is PKC alpha kinase (Homo sapiens, UniProt P17252). Kind of test: PKC alpha kinase inhibition, coupled-enzyme (NADH absorbance) assay, Ki. The conditions noted are these: 130 μM ATP, 4.5 nM PKC alpha kinase, 30° C. In short, it runs like this: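 Ki derived by non-linear regression of initial rates from a coupled assay tracking NADH absorbance at 340 nm over 15 min at 30 °C. ATP was 130 μM final after a 10 min compound–enzyme preincubation in HEPES pH 7.5 buffer with MgCl2, CaCl2, NaCl, EDTA and Brij.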

In a further test the target is PKC delta kinase (Homo sapiens, UniProt Q05655). The test can be described thus: PKC delta kinase inhibition, coupled-enzyme (NADH absorbance) assay, Ki. To be noted: 150 μM ATP, 46 nM PKC delta kinase, 30° C.; read-out: Ki PKC delta. In outline: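 Enzyme and compound pre-equilibrated 10 min at 30° C before adding ATP to 150 μM final. Buffer: HEPES pH 7.5 (100 mM), 10 mM MgCl2, 25 mM NaCl, 0.1 mM EDTA, 0.01% Brij.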
Sequence of PKC delta kinase (Q05655 whole entry): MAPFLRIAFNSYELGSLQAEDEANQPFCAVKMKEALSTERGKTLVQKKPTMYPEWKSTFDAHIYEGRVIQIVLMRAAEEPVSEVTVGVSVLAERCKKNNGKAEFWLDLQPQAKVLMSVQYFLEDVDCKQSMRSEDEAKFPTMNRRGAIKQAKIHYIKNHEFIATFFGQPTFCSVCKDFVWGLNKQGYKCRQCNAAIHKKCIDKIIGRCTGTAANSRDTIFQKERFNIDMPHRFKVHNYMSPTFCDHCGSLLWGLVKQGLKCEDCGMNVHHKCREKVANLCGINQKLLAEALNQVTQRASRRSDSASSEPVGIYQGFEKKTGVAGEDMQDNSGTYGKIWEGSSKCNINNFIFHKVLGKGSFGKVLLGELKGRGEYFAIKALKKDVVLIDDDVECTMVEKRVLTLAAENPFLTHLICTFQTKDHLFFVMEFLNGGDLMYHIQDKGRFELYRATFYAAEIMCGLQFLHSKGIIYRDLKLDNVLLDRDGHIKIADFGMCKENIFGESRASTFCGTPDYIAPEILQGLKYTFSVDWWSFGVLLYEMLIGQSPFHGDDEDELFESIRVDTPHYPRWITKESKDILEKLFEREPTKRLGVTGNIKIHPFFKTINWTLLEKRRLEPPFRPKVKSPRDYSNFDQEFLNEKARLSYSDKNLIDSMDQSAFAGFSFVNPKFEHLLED

Sequence of PKC theta kinase (Q04759 whole entry): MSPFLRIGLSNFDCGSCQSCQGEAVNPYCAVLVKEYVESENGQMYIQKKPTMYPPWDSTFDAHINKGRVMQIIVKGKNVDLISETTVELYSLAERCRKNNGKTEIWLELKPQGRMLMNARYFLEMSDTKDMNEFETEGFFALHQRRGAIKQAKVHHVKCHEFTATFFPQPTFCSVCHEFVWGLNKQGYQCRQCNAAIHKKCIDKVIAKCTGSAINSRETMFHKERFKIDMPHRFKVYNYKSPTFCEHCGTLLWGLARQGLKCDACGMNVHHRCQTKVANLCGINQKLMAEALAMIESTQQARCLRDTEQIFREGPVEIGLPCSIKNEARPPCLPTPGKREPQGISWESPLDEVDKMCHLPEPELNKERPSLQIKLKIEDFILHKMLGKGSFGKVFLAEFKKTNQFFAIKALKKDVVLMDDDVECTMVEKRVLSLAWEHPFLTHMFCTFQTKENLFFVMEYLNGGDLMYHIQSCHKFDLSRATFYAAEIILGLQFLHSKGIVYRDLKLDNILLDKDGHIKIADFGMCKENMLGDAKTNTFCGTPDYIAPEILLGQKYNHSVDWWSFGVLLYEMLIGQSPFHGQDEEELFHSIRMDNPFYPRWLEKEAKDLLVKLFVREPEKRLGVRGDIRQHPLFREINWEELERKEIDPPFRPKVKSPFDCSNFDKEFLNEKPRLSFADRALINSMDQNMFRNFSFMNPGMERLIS

Regarding `CC(C)C[C@H]1CN(c2nc(-c3n[nH]c4ncccc34)ccc2F)CCN1` [Compound 131], the Ki was under 50 nM at PKC theta kinase, under 2800 nM at PKC alpha kinase and under 2800 nM at PKC delta kinase.

For the compound `OC1CCCN(c2ccc(C(F)(F)F)c(-c3n[nH]c4ncccc34)n2)C1` (stereo not drawn) [Compound 423], the Ki on PKC theta kinase is over 700 nM; at PKC alpha kinase, over 1250 nM; on PKC delta kinase it was over 1250 nM.

For the compound `FC(F)(F)c1ccc(N2CCNCC2)nc1-c1n[nH]c2ncccc12` [Compound 8], the values for the Ki on PKC theta kinase, at PKC alpha kinase and on PKC delta kinase were under 500 nM, over 1250 nM and under 2800 nM, respectively.

As to `NCC1CCCN(c2cccc(-c3n[nH]c4ncccc34)n2)C1` (stereo not drawn) [Compound 74], the figures for the Ki on PKC theta kinase, on PKC alpha kinase and on PKC delta kinase were under 500 nM, under 2800 nM and under 500 nM, respectively.

In the case of `CCOC[C@H]1CN(c2cccc(-c3n[nH]c4ncccc34)n2)CCN1` [Compound 147], the Ki on PKC theta kinase is under 500 nM; at PKC alpha kinase, over 1250 nM; at PKC delta kinase it was over 1250 nM.

In the case of `CC(C)(C(N)C1CCCN(c2ccc(F)c(-c3n[nH]c4ncccc34)n2)C1)C(F)(F)F` (stereo not drawn) [Compound 393], the results for the Ki on PKC theta kinase, on PKC alpha kinase and at PKC delta kinase were under 1 nM, under 2800 nM and under 50 nM, respectively.

With `CC1CN(c2ccc(F)c(-c3n[nH]c4ncccc34)n2)CC(C2(O)CCC2)N1` (stereo not drawn) [Compound 256], the results for the Ki at PKC theta kinase, at PKC alpha kinase and at PKC delta kinase were under 500 nM, over 1250 nM and over 1250 nM, respectively.

On to `CC(C)CC1(CN)CCN(c2ccc(C(F)(F)F)c(-c3n[nH]c4ncccc34)n2)CC1` [Compound 466], for which the Ki on PKC theta kinase was under 500 nM; on PKC alpha kinase, over 1250 nM; on PKC delta kinase, over 1250 nM.

For the compound `FC(F)(F)c1ccc(N2CCNC(c3cccc(Cl)c3)C2)nc1-c1n[nH]c2ncccc12` (stereo not drawn) [Compound 170], the Ki is under 50 nM at PKC theta kinase, under 500 nM at PKC alpha kinase and under 2800 nM on PKC delta kinase.

Turning to `CCC(CC)C(N)C1CCCN(c2ccc(F)c(-c3n[nH]c4ncccc34)n2)C1` (stereo not drawn) [Compound 391], the Ki on PKC theta kinase was under 50 nM; at PKC alpha kinase it was over 1250 nM; at PKC delta kinase, under 2800 nM.

For the compound `CN1CCCN(c2cccc(-c3n[nH]c4ncccc34)n2)CC1` [Compound 34], the Ki was under 500 nM at PKC theta kinase, under 500 nM at PKC alpha kinase and over 2000 nM at PKC delta kinase.

For `NCC1CN(c2cc(C(F)(F)F)cc(-c3n[nH]c4ncccc34)n2)C1` [Compound 433], the Ki at PKC theta kinase was under 2800 nM; on PKC alpha kinase, over 1250 nM; at PKC delta kinase it was over 1250 nM.

Take `C[C@H]1CNCCN1c1cccc(-c2n[nH]c3ncccc23)n1` [Compound 30]: the Ki at PKC theta kinase is under 50 nM; at PKC alpha kinase, under 500 nM; at PKC delta kinase, under 500 nM.

`NC1(C2CCCN(c3ccc(F)c(-c4n[nH]c5ncccc45)n3)C2)CCCC1` (stereo not drawn) [Compound 344]: the Ki was under 50 nM at PKC theta kinase, over 1250 nM on PKC alpha kinase and under 500 nM at PKC delta kinase.

Take `NC1CCN(c2cc(C(F)(F)F)cc(-c3n[nH]c4ncccc34)n2)CC1` [Compound 108]: the Ki was under 500 nM on PKC theta kinase, over 1250 nM at PKC alpha kinase and under 2800 nM on PKC delta kinase.

For the compound `NC1CCCN(c2ccc(C(F)(F)F)c(-c3n[nH]c4ncccc34)n2)C1` (stereo not drawn) [Compound 122], the Ki on PKC theta kinase is over 700 nM; at PKC alpha kinase, over 1250 nM; at PKC delta kinase it was over 1250 nM.

Regarding `CC(C)[C@H]1CN(c2ccc(C(F)(F)F)c(-c3n[nH]c4ncccc34)n2)CCN1` [Compound 98], the values for the Ki at PKC theta kinase, on PKC alpha kinase and at PKC delta kinase were under 500 nM, over 1250 nM and over 2000 nM, respectively.

For `C[C@](O)(c1ccccc1)[C@@H]1CN(c2ccc(F)c(-c3n[nH]c4ncccc34)n2)CCN1` [Compound 274], the Ki was under 500 nM on PKC theta kinase, over 1250 nM at PKC alpha kinase and over 1250 nM at PKC delta kinase.

On to `C=C(F)c1ccc(N2CCN[C@@H](CC(C)C)C2)nc1-c1n[nH]c2ncccc12` [Compound 6], for which the values for the Ki at PKC theta kinase, on PKC alpha kinase and at PKC delta kinase were under 50 nM, under 500 nM and under 500 nM, respectively.

In the case of `FC(F)(F)CC1CN(c2cccc(-c3n[nH]c4ncccc34)n2)CCN1` (stereo not drawn) [Compound 28], the Ki is under 50 nM at PKC theta kinase, under 2800 nM at PKC alpha kinase and under 500 nM at PKC delta kinase.

Regarding `COC(=O)C1(CC(C)C)CN(c2ccc(C(F)(F)F)c(-c3n[nH]c4ncccc34)n2)CCC1N` (stereo not drawn) [Compound 402], the values for the Ki at PKC theta kinase, on PKC alpha kinase and on PKC delta kinase were under 500 nM, over 1250 nM and under 500 nM, respectively.

In the case of `C=Cc1ccc(N2CCN[C@@H](CC(C)C)C2)nc1-c1n[nH]c2ncccc12` [Compound 51], the values for the Ki at PKC theta kinase, on PKC alpha kinase and on PKC delta kinase were over 700 nM, over 1250 nM and over 2000 nM, respectively.

As for `CC(C)CC1CN(c2ccc(C(F)(F)F)c(-c3n[nH]c4ncccc34)n2)CC(CF)N1` (stereo not drawn) [Compound 217], the Ki at PKC theta kinase was over 700 nM; on PKC alpha kinase, over 1250 nM; on PKC delta kinase, over 1250 nM.
